Data from the NIST ThermoML archive (doi:10.1016/j.jct.2018.04.011).
Numbers after ± are expanded uncertainties.

Columns and labels:
[1] = Crystal; for Normal melting temperature: DTA
[2] = Molar enthalpy of transition or fusion; settings: Crystal; DSC
[3] = molar heat capacity at constant pressure; settings: 101.33 kPa, DSC

COC(=O)c1ccccc1O [methyl 2-hydroxybenzoate]
Settings	Molar enthalpy of transition or fusion [kJ/mol]	Normal melting temperature [°C]
[1]	–	-1.66 ± 0.85
[2]	16.3 ± 0.75	–

[3], Liquid
Settings	molar heat capacity at constant pressure [J/K/mol]
293.15 K	240.4 ± 9.3
294.15 K	241.6 ± 9.4
295.15 K	242.5 ± 9.4
296.15 K	243.3 ± 9.4
297.15 K	243.9 ± 9.4
298.15 K	244.3 ± 9.5
299.15 K	244.8 ± 9.5
300.15 K	245.2 ± 9.5
301.15 K	245.6 ± 9.5
302.15 K	246.1 ± 9.5
303.15 K	246.6 ± 9.6
304.15 K	246.9 ± 9.6
305.15 K	247.1 ± 9.6
306.15 K	247.4 ± 9.6
307.15 K	247.8 ± 9.6
308.15 K	248 ± 9.6
309.15 K	248.3 ± 9.6
310.15 K	248.6 ± 9.6
311.15 K	249.1 ± 9.6
312.15 K	249.4 ± 9.7

COC(=O)c1cccc(O)c1 [methyl 3-hydroxybenzoate]
Settings	mass density [kg/m3]
[1], 298.15 K, 101.33 kPa, Pycnometric method	1230 ± 20

Settings	Molar enthalpy of transition or fusion [kJ/mol]	Normal melting temperature [°C]
[1]	–	71.10 ± 0.41
[2]	20.1 ± 0.47	–

[3], Crystal
Settings	molar heat capacity at constant pressure [J/K/mol]
293.15 K	200.2 ± 7.8
294.15 K	201.3 ± 7.8
295.15 K	202.6 ± 7.8
296.15 K	203.3 ± 7.9
297.15 K	204.1 ± 7.9
298.15 K	205 ± 7.9
299.15 K	205.6 ± 8
300.15 K	206.2 ± 8
301.15 K	206.7 ± 8
302.15 K	207.5 ± 8
303.15 K	208.2 ± 8.1
304.15 K	208.7 ± 8.1
305.15 K	209.2 ± 8.1
306.15 K	209.8 ± 8.1
307.15 K	210.4 ± 8.1
308.15 K	211 ± 8.2
309.15 K	211.5 ± 8.2
310.15 K	212 ± 8.2
311.15 K	212.6 ± 8.2
312.15 K	213.1 ± 8.3

COC(=O)c1ccc(O)cc1 [methyl 4-hydroxybenzoate]
Settings	Molar enthalpy of transition or fusion [kJ/mol]	Normal melting temperature [°C]
[1]	–	126 ± 0.41
[2]	25.8 ± 0.73	–

[3], Crystal
Settings	molar heat capacity at constant pressure [J/K/mol]
293.15 K	209.8 ± 8.1
294.15 K	211 ± 8.2
295.15 K	212.2 ± 8.2
296.15 K	212.8 ± 8.2
297.15 K	213.6 ± 8.3
298.15 K	214.4 ± 8.3
299.15 K	215.2 ± 8.3
300.15 K	215.7 ± 8.4
301.15 K	216.2 ± 8.4
302.15 K	217 ± 8.4
303.15 K	217.8 ± 8.4
304.15 K	218.4 ± 8.5
305.15 K	218.9 ± 8.5
306.15 K	219.3 ± 8.5
307.15 K	220.1 ± 8.5
308.15 K	220.6 ± 8.5
309.15 K	221.2 ± 8.6
310.15 K	221.7 ± 8.6
311.15 K	222.4 ± 8.6
312.15 K	222.8 ± 8.6
